We go through 20 molecules from US20240166660A1, “KRAS G12C INHIBITORS” (BeiGene Switzerland GmbH, priority 2021, published 2024).

Where only a bound is given, the exact number is not on record here.

The assay deals with KRAS (aa 1-169) G12C, C51S, C80L, C118S (Homo sapiens (Human), UniProt P01116, C118S/C51S/C80L/G12C). Put plainly: Biochemical functional assay: SOS1-mediated nucleotide exchange of GDP-loaded KRAS G12C, binding to GST-cRaf RBD, FRET readout. Particulars: 3 hrs pre-incubation with compound at 24° C., SOS1, GTPyS. As to the method: Biochemical Functional Assay
KRAS (aa 1-169) G12C, C51S, C80L, C118S, sequence (P01116 other isoform, or with tags, fused parts or gaps G12C/C51S/C80L/C118S): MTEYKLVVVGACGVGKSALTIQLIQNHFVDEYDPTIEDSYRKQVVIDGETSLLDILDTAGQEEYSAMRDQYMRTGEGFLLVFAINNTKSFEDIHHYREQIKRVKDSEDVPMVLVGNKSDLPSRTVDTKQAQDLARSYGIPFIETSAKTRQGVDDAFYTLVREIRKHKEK
The KRAS (aa 1-169) G12C, C51S, C80L, C118S with a His-tag was expressed, purified and loaded with GDP in house. All protein and substrate solutions were prepared in assay buffer containing 25 mM HEPES pH7.5, 10 mM MgCl2, and 0.01% Triton X-100. Purified GDP-loaded KRAS (aa 1-169) G12C, C51S, C80L, C118S protein was pre-incubated with a serially diluted compound at 24° C. for 3 hrs. Purified SOS1 (aa 564-1049) protein, GTPyS (Sigma) and GST-cRaf RBD (aa 1-149) were then added to each well and incubated at 24° C. for additional 3 hrs. […] Following the incubation, Mab Anti-6HIS-T cryptate (Cisbio) and Mab Anti GST-XL665 (Cisbio) were added and further incubated at 24° C. for 3 hrs. The binding interaction between active GTPyS KRAS G12C and GST-cRaf RBD brings the Tb and XL665 into close proximity enabling an increased FRET signal (Ex337 nm, Em665 nm/620 nm). The inhibition percentage of nucleotide exchange reaction in presence of increasing concentrations of compounds was calculated based on the ratio of fluorescence at 665 nm to that at 620 nm detected on a BMG PHERAstar FSX instrument. The IC50 value of each compound was calculated from fitting the data to the four-parameter logistic model by Dotmatics.

The mark [1] stands for this setting: inhibition of nucleotide exchange.

A word on the IC50: it is the midpoint of a concentration-inhibition curve. For the molecule `C=CC(=O)N1CCN(c2ncnc3cc(-c4c(C)ccc5[nH]ncc45)c4c(c23)OCCC4)CC1` [Compound A13, 1-(4-(5-(5-methyl-1H-indazol-4-yl)-3,4-dihydro-2H-pyrano[2,3-f]quinazolin-10-yl)piperazin-1-yl)prop-2-en-1-one], the IC50 under setting [1] worked out at 3.31 µM.

On to `C=CC(=O)N1CCN(c2ncnc3cc(-c4cc(F)cc5[nH]ncc45)c4c(c23)OCCC4)C[C@@H]1CC#N` [Compound A16, (S)-2-(1-acryloyl-4-(5-(6-fluoro-1H-indazol-4-yl)-3,4-dihydro-2H-pyrano[2,3-f]quinazolin-10-yl)piperazin-2-yl)acetonitrile], for which, under setting [1], the half-inhibitory concentration (IC50) was found to be 0.0898 µM.

As to `C=CC(=O)N1CCN(c2ncnc3cc(-c4c(Cl)c(F)cc5[nH]ncc45)c4c(c23)OCCC4)C[C@@H]1CC#N` [Compound A17, 2-((2S)-1-acryloyl-4-(5-(5-chloro-6-fluoro-1H-indazol-4-yl)-3,4-dihydro-2H-pyrano[2,3-f]quinazolin-10-yl)piperazin-2-yl)acetonitrile], the concentration for half-maximal inhibition (IC50) under setting [1] turned out to be 0.0317 µM.

Regarding `C=CC(=O)N1CCN(c2ncnc3cc(-c4cc(C(F)(F)F)cc5[nH]ncc45)c4c(c23)OCCC4)C[C@@H]1CC#N` [Compound A18, (S)-2-(1-acryloyl-4-(5-(6-(trifluoromethyl)-1H-indazol-4-yl)-3,4-dihydro-2H-pyrano[2,3-f]quinazolin-10-yl)piperazin-2-yl)acetonitrile], the IC50 under setting [1] was 0.0378 µM.

As for `C=CC(=O)N1CCN(c2ncnc3cc(-c4c(Cl)c(F)cc5[nH]ncc45)c4c(c23)OCCC4)CC1` [Compound A19, 1-(4-(5-(5-chloro-6-fluoro-1H-indazol-4-yl)-3,4-dihydro-2H-pyrano[2,3-f]quinazolin-10-yl)piperazin-1-yl)prop-2-en-1-one], the half-maximal inhibitory concentration (IC50) under setting [1] was determined as 0.691 µM.

As to `C=CC(=O)N1CCN(c2ncnc3cc(-c4c(Cl)c(C)cc5[nH]ncc45)c4c(c23)OCCC4)C[C@@H]1CC#N` [Compound A20, 2-((2S)-1-acryloyl-4-(5-(5-chloro-6-methyl-1H-indazol-4-yl)-3,4-dihydro-2H-pyrano[2,3-f]quinazolin-10-yl)piperazin-2-yl)acetonitrile], the IC50 under setting [1] was determined as 0.0149 µM.

Take `C=CC(=O)N1CCN(c2ncnc3cc(-c4ccc(O)c5ccccc45)c4c(c23)OCCC4)C[C@@H]1CC#N` [Compound A21, (S)-2-(1-acryloyl-4-(5-(4-hydroxynaphthalen-1-yl)-3,4-dihydro-2H-pyrano[2,3-f]quinazolin-10-yl)piperazin-2-yl)acetonitrile]: the IC50 under setting [1] is 0.005 µM.

In the case of `C=CC(=O)N1CCN(c2ncnc3cc(-c4cnc(N)cc4C(F)(F)F)c4c(c23)OCCC4)C[C@@H]1CC#N` [Compound A22, (S)-2-(1-acryloyl-4-(5-(6-amino-4-(trifluoromethyl)pyridin-3-yl)-3,4-dihydro-2H-pyrano[2,3-f]quinazolin-10-yl)piperazin-2-yl)acetonitrile], the concentration for half-maximal inhibition (IC50) under setting [1] was determined as 0.256 µM.

As to `C=C(F)C(=O)N1CCN(c2ncnc3cc(-c4c(Cl)c(C)cc5[nH]ncc45)c4c(c23)OCCC4)C[C@@H]1CC#N` [Compound A23, 2-((2S)-4-(5-(5-chloro-6-methyl-1H-indazol-4-yl)-3,4-dihydro-2H-pyrano[2,3-f]quinazolin-10-yl)-1-(2-fluoroacryloyl)piperazin-2-yl)acetonitrile], under setting [1], the IC50 was 0.346 µM.

In the case of `C=CC(=O)N1CCN(c2ncnc3cc(-c4c(C)cccc4C)c4c(c23)OCCC4)C[C@@H]1CC#N` [Compound A24, (S)-2-(1-acryloyl-4-(5-(2,6-dimethylphenyl)-3,4-dihydro-2H-pyrano[2,3-f]quinazolin-10-yl)piperazin-2-yl)acetonitrile], the IC50 under setting [1] came to 0.262 µM.

`C=CC(=O)N1CCN(c2ncnc3cc(-c4c(C)c(C)cc5[nH]ncc45)c4c(c23)OCCC4)C[C@@H]1CC#N` [Compound A25, 2-((2S)-1-acryloyl-4-(5-(5,6-dimethyl-1H-indazol-4-yl)-3,4-dihydro-2H-pyrano[2,3-f]quinazolin-10-yl)piperazin-2-yl)acetonitrile]: the IC50 under setting [1] came out at 0.0155 µM.

In the case of `C=CC(=O)N1CCN(c2ncnc3cc(-c4c(C)c(Cl)cc5[nH]ncc45)c4c(c23)OCCC4)C[C@@H]1CC#N` [Compound A26, 2-((2S)-1-acryloyl-4-(5-(6-chloro-5-methyl-1H-indazol-4-yl)-3,4-dihydro-2H-pyrano[2,3-f]quinazolin-10-yl)piperazin-2-yl)acetonitrile], the 50% inhibitory concentration (IC50) under setting [1] is 0.0099 µM.

With `C=CC(=O)N1CCN(c2ncnc3cc(-c4ccc(O)c(Cl)c4)c4c(c23)OCCC4)C[C@@H]1CC#N` [Compound A27, (S)-2-(1-acryloyl-4-(5-(3-chloro-4-hydroxyphenyl)-3,4-dihydro-2H-pyrano[2,3-f]quinazolin-10-yl)piperazin-2-yl)acetonitrile], the IC50 (bound in uM) is above 10 µM.

In the case of `C=CC(=O)N1CCN(c2ncnc3cc(-c4ccc(O)c(F)c4)c4c(c23)OCCC4)C[C@@H]1CC#N` [Compound A28, (S)-2-(1-acryloyl-4-(5-(3-fluoro-4-hydroxyphenyl)-3,4-dihydro-2H-pyrano[2,3-f]quinazolin-10-yl)piperazin-2-yl)acetonitrile], the half-maximal inhibitory concentration (IC50) (bound in uM) was above 10 µM.

As to `C=CC(=O)N1CCN(c2ncnc3cc(-c4c(Cl)c(Cl)cc5[nH]ncc45)c4c(c23)OCCC4)C[C@@H]1CC#N` [Compound A29, 2-((2S)-1-acryloyl-4-(5-(5,6-dichloro-1H-indazol-4-yl)-3,4-dihydro-2H-pyrano[2,3-f]quinazolin-10-yl)piperazin-2-yl)acetonitrile], under setting [1], the IC50 turned out to be 0.0093 µM.

In the case of `C=C(F)C(=O)N1CCN(c2ncnc3cc(-c4c(C)cccc4F)c4c(c23)OCCC4)C[C@@H]1CC#N` [Compound A30, 2-((2S)-4-(5-(2-fluoro-6-methylphenyl)-3,4-dihydro-2H-pyrano[2,3-f]quinazolin-10-yl)-1-(2-fluoroacryloyl)piperazin-2-yl)acetonitrile], the concentration for half-maximal inhibition (IC50) under setting [1] is 1.96 µM.

As to `C=CC(=O)N1CCN(c2ncnc3cc(-c4cccc(C)c4F)c4c(c23)OCCC4)C[C@@H]1CC#N` [Compound A31, (S)-2-(1-acryloyl-4-(5-(2-fluoro-3-methylphenyl)-3,4-dihydro-2H-pyrano[2,3-f]quinazolin-10-yl)piperazin-2-yl)acetonitrile], under setting [1], the half-maximal inhibitory concentration (IC50) amounted to 0.137 µM.

As for `C=CC(=O)N1CCN(c2ncnc3cc(-c4cccc5cccc(Cl)c45)c4c(c23)OCCC4)C[C@@H]1CC#N` [Compound A32, (S)-2-(1-acryloyl-4-(5-(8-chloronaphthalen-1-yl)-3,4-dihydro-2H-pyrano[2,3-f]quinazolin-10-yl)piperazin-2-yl)acetonitrile], the IC50 under setting [1] worked out at 0.012 µM.

Turning to `C=CC(=O)N1CCN(c2ncnc3cc(-c4c(C)cccc4F)c4c(c23)OCCC4)C[C@@H]1CC#N` [Compound A33, 2-((2S)-1-acryloyl-4-(5-(2-fluoro-6-methylphenyl)-3,4-dihydro-2H-pyrano[2,3-f]quinazolin-10-yl)piperazin-2-yl)acetonitrile], the IC50 under setting [1] is 0.233 µM.

Regarding `C=CC(=O)N1CCN(c2ncnc3cc(-c4c(F)cccc4F)c4c(c23)OCCC4)C[C@@H]1CC#N` [Compound A34, (S)-2-(1-acryloyl-4-(5-(2,6-difluorophenyl)-3,4-dihydro-2H-pyrano[2,3-f]quinazolin-10-yl)piperazin-2-yl)acetonitrile], the 50% inhibitory concentration (IC50) under setting [1] turned out to be 2.11 µM.
